Data: patent publication US20200367756A1, “METHOD AND SYSTEM FOR IN VIVO DETECTION OF ADIPOSE TISSUE BROWNING” (Agency for Science, Technology and Research, priority 2018, published 2020)
Entries after “also recorded” stand apart in the source; their conditions may differ.

Legend:
Ucp1 [1] = test: UCP1 immunohistochemistry (IHC) of WAT and BAT of treated mice; type: in vivo, BALB/c nude mice
Protocol: (§1) Mice (n=4; each group) were injected daily with either CL 316, 243 hydrate (1 mg/kg body weight intraperitoneally in test group (CL) or equal volume of saline in control (C) group animals for 7 days. After the in vivo DRS experiment, the mice was euthanized and fresh WAT tissues in control (C) and CL group were extracted and immediately frozen for RNA and protein expression analyses. WAT from the inguinal region and BAT from the interscapular region were stored in 10% normal buffered formalin (NBF) for hematoxylin and eosin (H&E) staining and Immunohistochemistry (IHC). BAT tissues extracted from mice injected with saline is marked as C BAT while BAT from CL injected mice as CL BAT. Similarly, WAT and beige refer to the WATs in saline (control) and CL injected group, respectively.
(§2) In various example embodiments, H&E staining and UCP1 IHC were performed by the Advanced Molecular Pathology Laboratory (AMPL) at the Institute of Molecular and Cell Biology (IMCB), A*STAR, according to standard operating procedures. 1:50 dilution of UCP1 antibody (Abcam) at pH 6.0 was used for UCP1 IHC. All the images were obtained by using Olympus microscope equipped with DS-L3+Filc camera with a ×20 objective lens. Software ImageJ was used to analyse the images.

WAT and BAT adipocytes = test: H&E staining of WAT and BAT of treated mice; type: in vivo, BALB/c nude mice
Protocol: as §1, §2

Ucp1 [2] = test: Western blot analysis of UCP1 protein in adipose tissues of treated mice; type: in vivo, BALB/c nude mice; details: loading control β-ACTIN, vs saline WAT, hydrate
Protocol: as §1
In various example embodiments, total protein lysates isolation from adipose tissues extracted from mice administered with either saline or CL (n=4, each group) was done in RadioImmunoPrecipitation Assay (RIPA) lysis buffer and quantified using the Biorad assay. Equal volume of proteins were loaded onto 10% Sodium Dodecyl Sulfate-Polyacrylamide Gel Electrophoresis (SDS-PAGE) followed by transfer to the PolyVinyliDene Fluoride (PVDF) membrane. […]

Ucp1 [3] = test: Real-Time qPCR of Ucp1 mRNA in adipose tissues of treated mice; type: in vivo, BALB/c nude mice; details: normalized to Gapdh mRNA
Protocol: as §1
In various example embodiments, total RNA was extracted with the RNeasy Lipid Tissue Mini Kit (Qiagen, Hilden, Germany) according to the manufacturer's instruction and Real-Time PCR was conducted using UCP1 primer pair UCP1_F: 5′-GGCCTCTACGACTCAGTCCA-3′ and UCP1_R: 5′-TAAGCCGGCTGAGATCTTGT-3′. GAPDH was used to normalize the relative mRNA expression by using a primer pair GAPDH_F: 5′-CAA GGT CAT CCA CTT-3′ and GAPDH_R: 5′-GGC CAT CCA CAG TCT GG-3′. The results are represented as mean±SE (n=4 in each group).

[4] = tested on: WAT (browning of white adipose tissue); test: In vivo DRS measurement of lipid fraction (browning marker) in adipose tissue; parameters: species or system BALB/c nude mice
From the text: In particular, FIG. 5 depicts a schematic drawing of an example setup of in vivo DRS measurement system 500 for obtaining (e.g., generating or measuring) diffuse reflectance spectrum information (raw diffuse reflectance spectrum information) in a mouse model with partial skin incision using DRS spectroscopy in the NIR II optical window. In this regard, browning was induced in mice for 7 days by β-adrenergic administration followed by DRS measurement in the 1050 to 1350 nm range using an excitation-collection fiber probe 506 with source-detector fiber separations 508 configured to achieve a desired or sufficient depth of interrogation. The measured diffuse reflectance spectrum information obtained at the adipose tissue site was then processed according to various example embodiments to extract or derive water and lipid chromophore fractions (or water and lipid proportions or ratios) at the adipose tissue site in the 1050 nm to 1350 nm wavelength range. The water and lipid chromophore fractions were estimated from the measured DRS spectra by employing a lookup table (LUT) based on inverse Monte-Carlo modelling. In other words, the measured DRS spectra at the adipose tissue site is spectrally unmixed particularly for water and lipid chromophores using the Monte-Carlo based LUT within the wavelength range of 1050 nm to 1400 nm, or more preferably, 1050 nm to 1350 nm. […]

[5] = inguinal WAT, vs saline control WAT, hydrate
[6] = interscapular BAT, CL vs saline

C[C@H](Cc1ccc2c(c1)OC(C(=O)[O-])(C(=O)[O-])O2)NC[C@H](O)c1cccc(Cl)c1.[Na+].[Na+] [CL, CL 316, 243 hydrate]
UCP1 IHC signal in WAT (beige) (Ucp1 [1]; [5]): significant emergence of UCP1 expression; also recorded: increased UCP1 staining
UCP1 IHC signal in BAT (Ucp1 [1]; [6]): not changed
adipocyte morphology in WAT (beige), H&E staining (WAT and BAT adipocytes; [5]): subpopulation of multilocular adipocytes are emerging
adipocyte appearance in BAT, H&E staining (WAT and BAT adipocytes; [6]): appearance was not changed
UCP1 protein expression in WAT (beige) (Ucp1 [2]): significantly induced; also recorded: higher expression
Ucp1 mRNA expression in BAT (Ucp1 [3]; BAT (CL) vs BAT (C)): did not significantly change
Ucp1 mRNA expression in WAT (beige) relative to saline control (WAT) (Ucp1 [3]; 1 mg/kg i.p. daily, 7 days): significantly enhanced
lipid fraction (SLW) of beige adipose tissue (CL treated WAT) ([4]; mice, 1 mg/kg intraperitoneally daily for 7 days, DRS 1050 to 1350 nm, MCLUT unmixing, control WAT 0.70±0.095, BAT 0.518±0.112): 0.628±0.076 a.u.
extent of WAT browning indicated by calculated SLW ([4]; over a period of 7 days, CL treated animals): about 50%
